In this assay the test system is nerve injury-induced tactile allodynia. Nature of the assay: Spinal nerve ligation model (Chung model) of neuropathic pain. The note with it: rat. In kind it is in vivo, Male Sprague Dawley rats. From the text:
The spinal nerve ligation model of neuropathic pain was used to assess the effects of test compounds on nerve injury-induced tactile allodynia (S. H. Kim and J. M. Chung, Pain 50:355-363(1992)). Male Sprague Dawley rats (175-200 g) received unilateral tight ligation of the left L5/L6 spinal nerves distal to the dorsal root ganglion using 4-0 silk suture. Behavioral-nociceptive testing occurred 7-14 days following spinal nerve ligation by placing the rats in chambers on a wire mesh. Rats were tested for tactile allodynia (decreased hindpaw withdrawal threshold to non-noxious punctate stimulation) by applying a series of calibrated von Frey filaments to the plantar aspect of the left hindpaw ipsilateral to the site of nerve injury. The mean 50% hindpaw withdrawal threshold (g.) was determined using the Dixon “up-down” non-parametric test (Chaplan et al., J. Neurosci. Methods, 53:55-63(1994)). […] Following determination of pre-drug withdrawal thresholds, rats received either an i.p. or p.o. injection of test compound. The effect of the test compound on tactile allodynia was determined over time by measuring hindpaw withdrawal thresholds 30, 60, 90, 120 min post-injection. In above model, EXAMPLE 1 produced a 65% effect after i.p. dosing at 30 mg/kg, EXAMPLE 50 produced a 100% effect after i.p. dosing at 20 mg/kg, EXAMPLE 115 produced a 60% effect after i.p. dosing at 30 mg/kg i.p.

`CCOc1ccc(-n2c(C)c3c(C)nnc(-c4ccc(OC)cc4)c3c2C)cc1` [EXAMPLE 1, 6-(4-ethoxyphenyl)-1-(4-methoxyphenyl)-4,5,7-trimethyl-6H-pyrrolo[3,4-d]pyridazine]: for the setting “i.p. dosing at 30 mg/kg”, the “effect on tactile allodynia (hindpaw withdrawal threshold)” value (“effect on tactile allodynia” for short) was found to be 65%. On to `CCOc1ccc(-n2c(C)c3c(C)nnc(NC4CCc5ccccc54)c3c2C)c(OC)c1` (stereo not drawn) [EXAMPLE 115, N-(2,3-dihydro-1H-inden-1-yl)-6-(4-ethoxy-2-methoxyphenyl)-4,5,7-trimethyl-6H-pyrrolo[3,4-d]pyridazin-1-amine], for which the “effect on tactile allodynia” value (i.p. dosing at 30 mg/kg) was determined as 60%. `CCOc1ccc(-n2c(C)c3c(C)nnc(C)c3c2C)cc1` [EXAMPLE 50, 6-(4-ethoxyphenyl)-1,4,5,7-tetramethyl-6H-pyrrolo[3,4-d]pyridazine]: for the setting “i.p. dosing at 20 mg/kg”, the “effect on tactile allodynia” value was 100%.
